{"source": "paper PMC7718273", "about": "(Scientific Reports, 2020)", "key": {"PREP": {"biological_target": "T1, PREP (Homo sapiens, UniProt P48147)", "T1 construct": "purchased R&D Systems 4308-SE", "T1 sequence (P48147 whole entry)": "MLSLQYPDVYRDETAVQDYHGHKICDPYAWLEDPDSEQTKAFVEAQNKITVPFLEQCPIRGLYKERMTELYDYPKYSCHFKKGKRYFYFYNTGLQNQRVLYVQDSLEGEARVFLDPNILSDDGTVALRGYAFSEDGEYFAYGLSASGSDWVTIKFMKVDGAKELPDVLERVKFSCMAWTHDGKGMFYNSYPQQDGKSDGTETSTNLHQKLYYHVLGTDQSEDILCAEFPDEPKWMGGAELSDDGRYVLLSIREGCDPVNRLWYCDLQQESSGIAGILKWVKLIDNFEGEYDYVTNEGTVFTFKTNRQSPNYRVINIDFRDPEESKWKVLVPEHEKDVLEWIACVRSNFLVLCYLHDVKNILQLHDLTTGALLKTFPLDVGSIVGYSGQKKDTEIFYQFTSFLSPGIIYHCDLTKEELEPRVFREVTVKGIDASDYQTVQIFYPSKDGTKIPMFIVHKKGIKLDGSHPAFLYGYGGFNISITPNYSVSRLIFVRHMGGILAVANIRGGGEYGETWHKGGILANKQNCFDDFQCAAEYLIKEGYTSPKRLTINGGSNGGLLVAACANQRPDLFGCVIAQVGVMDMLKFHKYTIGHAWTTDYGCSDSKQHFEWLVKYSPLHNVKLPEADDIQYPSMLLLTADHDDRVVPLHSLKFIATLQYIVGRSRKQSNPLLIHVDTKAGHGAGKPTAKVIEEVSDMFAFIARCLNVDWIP", "test": "PREP activity, fluorometric assay with AMC substrate", "assay_type": "biochemical", "protocol": "(§1) Recombinant human PREP (hPREP) (catalog no. 4308-SE), hDPP2/7 (catalog no. 3438-SE), hDPP9 (catalog no. 5419-SE), hFAP (catalog no. 3715-SE), and hDPP4 (catalog no. 9168-SE) proteins were from R&D Systems (Minneapolis, MN). Human FGF21 (catalog no. CRF159C) was from Cell Science (Newburyport, MA).\n(§2) FAP enzyme activities were assayed in 20 mM Tris/HCl, 0.1 M NaCl, 1 mM EDTA (pH 8.0) in the presence of 40 μM Suc-Gly-Pro-Leu-Gly-Pro-AMC (#I-1350.0100, BACHEM, Bubendorf, Switzerland) and hFAP in a total volume of 100 µL. […] The inhibitor concentrations ranged from 100 μM to 0.03 nM, and its IC50 values were computed with commercially available curve-fitting programs such as the SigmaPlot. Other protease activities were determined in a similar manner."}, "DPP4": {"biological_target": "T2, DPP4 (Homo sapiens, UniProt P27487)", "T2 construct": "purchased R&D Systems 9168-SE", "T2 sequence (P27487 whole entry)": "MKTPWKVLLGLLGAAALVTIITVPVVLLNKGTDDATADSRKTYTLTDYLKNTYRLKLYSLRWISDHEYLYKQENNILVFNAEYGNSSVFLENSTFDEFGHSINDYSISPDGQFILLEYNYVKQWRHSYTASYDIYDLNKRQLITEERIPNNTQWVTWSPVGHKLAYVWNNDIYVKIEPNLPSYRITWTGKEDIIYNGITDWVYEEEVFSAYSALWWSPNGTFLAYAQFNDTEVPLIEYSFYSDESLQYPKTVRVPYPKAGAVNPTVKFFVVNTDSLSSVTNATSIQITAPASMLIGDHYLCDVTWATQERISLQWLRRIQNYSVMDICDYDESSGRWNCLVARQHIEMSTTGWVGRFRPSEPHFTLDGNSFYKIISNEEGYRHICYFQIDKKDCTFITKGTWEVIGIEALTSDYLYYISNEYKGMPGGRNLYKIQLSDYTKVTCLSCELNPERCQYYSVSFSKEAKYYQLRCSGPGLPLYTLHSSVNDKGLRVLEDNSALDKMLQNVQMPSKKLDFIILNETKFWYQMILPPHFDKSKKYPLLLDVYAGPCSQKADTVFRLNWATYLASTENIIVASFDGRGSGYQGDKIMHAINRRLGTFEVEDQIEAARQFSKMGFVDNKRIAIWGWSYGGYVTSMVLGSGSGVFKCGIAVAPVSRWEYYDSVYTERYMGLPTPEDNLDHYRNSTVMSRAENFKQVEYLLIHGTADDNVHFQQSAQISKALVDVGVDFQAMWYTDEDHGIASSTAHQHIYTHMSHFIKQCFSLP", "test": "DPP4 activity, fluorometric assay with AMC substrate", "assay_type": "biochemical", "conditions": "fluorometric assay using AMC substrates", "protocol": "as §1, §2"}, "[1]": {"tested_on": "differentiated 3T3/L1 adipocytes", "test": "hFGF21 signalling in differentiated 3T3/L1 adipocytes with added FAP (immunoblot)", "assay_type": "cell-based", "conditions": "5 µM; hFGF21 500 ng/mL pre-incubated with FAP 100 ng/mL for 2 h", "protocol": "Treatment with hFGF21 increased p-ERK, Glut1 and adiponectin levels, which were reduced in the presence of FAP.\n(a) Fully differentiated 3T3/L1 adipocytes were incubated with full-length hFGF21 at 500 ng/mL. […] Phosphorylated ERK (p-ERK), total ERK (ERK), Glut1, adiponectin and β-actin were measured by immunoblots. (b) Quantification of p-ERK, Glut1 and adiponectin was obtained with densitometric analysis, and normalized with total ERK or β-actin, respectively.\nWestern blots were performed as described. For protein preparation, cells or tissues were solubilized in a lysis buffer. Protein concentration was determined using a Bio-Rad Protein Assay kit (Bio-Rad, Richmond, CA). Then, 20 μg of the protein was electrophoresed by SDS-PAGE and electrotransferred to polyvinylidene fluoride membranes (Millipore, Bedford, MA). […] Antibodies were detected by horseradish peroxidase-linked secondary antibody (1:10,000; Cell Signaling Tech., 7074S), using the enhanced chemiluminescence Western Blotting Detection System (Molecular Imager Gel Doc XR System, BIO-RAD). […]"}, "[2]": {"test": "Microsomal stability, dog", "assay_type": "in vitro ADME", "conditions": "liver microsomes, pH 7.4, dog (D), 0.5 mg/mL, NADPH, read-out: Microsomal stability (% remaining at 60 min)", "protocol": "Aliquots were then transferred in duplicate to: (i) a final concentration plate that was immediately quenched with 23.6 ng/mL internal standard (IS, chlorpropamide) in acetonitrile (ACN) or (ii) tubes, which were centrifuged for 5 min at 4℃ (14,000 rpm). The samples were subjected to LC–MS/MS analysis on an AB Sciex 4000 Q Trap hybrid triple quadrupole linear ion-trap MS (AB Sciex, Framingham, MA) coupled to an Agilent 1200 HPLC (Agilent Tech. Santa Clara, CA) with a reverse-phase Kinetex XB-C18 column (2.1 × 100 mm, 2.6 µm; Phenomenex). Mobile phases were comprised of 0.1% formic acid (FA) in water (A) and 0.1 FA in ACN (B). Data analysis was performed using […] (Ver. 1.6.1)."}, "Thermodynamic solubility": {"test": "Thermodynamic solubility", "assay_type": "physicochemical", "conditions": "thermodynamic from solid"}, "FAP": {"tested_on": "T3, FAP", "T3 construct": "from tissue; host or cells: mouse serum/plasma (ob/ob and C57BL/6J mice)", "test": "In vivo study using CDAHFD mice: FAP activity at week 14", "design": "species or system C57BL/6J mice", "conditions": "10 and 30 mg/kg p.o. for 10 weeks, vs vehicle", "protocol": "C57BL/6J mice were fed normal chow diet (n = 5) or choline-deficient, L-amino acid-defined, high-fat diet (CDAHFD) for 4 weeks to induce NASH (n = 8–10/group). […] (a) Relative FAP activity was assessed by FRET-quench and serum FGF21 level at week 14. […] (c) Steatosis scores ranged from 0 to 3 (normal = 0, minimal = 1, moderate = 2, marked = 3) were determined. Hepatic steatosis and fibrosis (Picrosirius red stain) were analyzed in a blinded manner or by digital image analyzer. (d–e) Histological evaluations of liver tissue were performed in each group. Paraffin-embedded liver sections were stained with H&E (d) and Sirius red (e). Representative photographs of each group were presented. Images were obtained at 100x (Scale bar = 50 µm).\nMale C57BL/6J mice (5 weeks of age) were fed with a CDAHFD consisting of 60% kcal fat and 0.1% methionine. […] For the CDAHFD model, compound treatments were started at the beginning of week 4 on the diet and continued until week 14. […] Liver tissue was then collected. All other measurements were done similarly as described above. Staining was performed using H&E and Picrosirius red as described previously. Areas of positive Sirius red were quantified by computer-based morphometric analysis."}, "in vivo": {"test": "in vivo", "conditions": "cynomolgus monkey, plasma, inhaled or intranasal, 50 mg/kg", "description": "(§3) Intact FGF21 levels in plasma were measured by ELISA.\n(§4) FAP activity and intact FGF21 concentrations were measured as described above."}, "[3]": {"tested_on": "Normal cynomolgus monkeys", "test": "In vivo study using cynomolgus monkeys: plasma concentration and intact FGF21", "conditions": "cynomolgus monkeys (n = 3), 50 mg/kg intranasal, range of individual animals", "description": "as §3, §4"}}}
{"smiles": "N#Cc1ccc(Cc2nc(C(=O)NCC(=O)N3CC(F)(F)C[C@H]3C#N)cs2)cc1", "note": "[BR103354, (S)-N-(2-(2-cyano-4,4-difluoropyrrolidin-1-yl)-2-oxoethyl)-2-(4-cyanobenzyl)thiazole-4-carboxamide]", "values": [{"measurement": "IC50", "setting": "PREP", "value": 387, "unit": "nM"}, {"measurement": "IC50", "setting": "DPP4", "value": "> 100000", "unit": "nM"}, {"measurement": "Glut1 levels", "setting": "[1]", "value": "enhanced Glut1 levels"}, {"measurement": "p-ERK levels", "setting": "[1]", "value": "restored p-ERK levels to those of normal"}, {"measurement": "remaining at 1 h, 1 µM", "setting": "[2]", "value": "> 100", "unit": "%"}, {"measurement": "solubility thermodynamic", "setting": "Thermodynamic solubility; aqueous buffer, pH 3.0", "value": 165, "unit": "µg/mL"}, {"measurement": "solubility thermodynamic", "setting": "Thermodynamic solubility; aqueous buffer, pH 7.0", "value": 141, "unit": "µg/mL"}, {"measurement": "solubility thermodynamic", "setting": "Thermodynamic solubility; simulated gastric fluid, pH 1.0", "value": 197, "unit": "µg/mL"}, {"measurement": "FAP activity", "setting": "FAP", "value": "inhibited in a dose-dependent manner"}, {"measurement": "Tmax", "setting": "in vivo", "value": 3, "unit": "h"}, {"measurement": "increase of intact FGF21, maximal", "setting": "[3]", "value": "1.5–3.5 fold"}]}
